Data on five molecules can be found in ChEMBL document CHEMBL5727881, “Pyridone amides as modulators of sodium channels” (2020).

pIC50: −log10 of the molar value.

The assay is described as follows: Electrophysiology Assay: Patch clamp electrophysiology was used to assess the efficacy and selectivity of sodium channel blockers in dorsal root ganglion neurons. Rat neurons were isolated from the dorsal root ganglions and maintained in culture for 2 to 10 days in the presence of NGF (50 ng/ml) (culture media consisted of NeurobasalA supplemented with B27, glutamine and antibiotics). Small diameter neurons (nociceptors, 8-12 μm in diameter) were visually identified and probed with fine tip glass electrodes connected to an amplifier (Axon Instruments). The “voltage clamp” mode was used to assess the compound's IC50 holding the cells at −60 mV. In addition, the “current clamp” mode was employed to test the efficacy of the compounds in blocking action potential generation in response to current injections. The results of these experiments contributed to the definition of the efficacy profile of the compounds.
As to `COc1ccc(Oc2ccc(F)cc2C(=O)Nc2cc[nH]c(=O)c2)c(C)c1`, the negative logarithm of the IC50 (pIC50) is 6.48. In the case of `O=C(Nc1cc[nH]c(=O)c1)c1ccc(C(F)(F)F)cc1O[C@@H]1CC2CCC1C2` (stereo not given in full) it was 6.12; in that of `O=C(Nc1ccn(CCO)c(=O)c1)c1ccc(C(F)(F)F)cc1Oc1ccc(F)cc1`, 5.55. Take `COc1cc(Oc2cc(C(F)(F)F)ccc2C(=O)Nc2cc[nH]c(=O)c2)ccc1F`: the pIC50 is 7.59. `COc1cc(C)ccc1Oc1ccc(OC(F)(F)F)cc1C(=O)Nc1cc[nH]c(=O)c1`: the pIC50 is 7.17.
